Data on 28 compounds can be found in patent publication US10173991B2, “Sulfone amide linked benzothiazole inhibitors of endothelial lipase” (BRISTOL-MYERS SQUIBB COMPANY, priority 2014, dated 2019).

The assay addresses Endothelial lipase (EL) (Homo sapiens (Human), UniProt Q9Y5X9). The experiment in a line: Endothelial lipase (EL) enzymatic assay with fluorescent substrate A10070 in DMPG vesicles. The format is biochemical. The gist of the method:
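EL from conditioned medium of HT-1080 cells engineered to overexpress endogenous EL; HL partially purified from conditioned medium of HL-overexpressing COS cells. Enzyme preincubated with compound 30 min at 37° C in 50 mM HEPES pH 8.0, 50 mM NaCl, 1 mM CaCl2; DMPG vesicles carrying FRET substrate (0.11 mole fraction) then added.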

Molecules are shown by their SMILES. Read-outs that look alike come from different tables or passages of the source.

Endothelial lipase (EL), sequence (Q9Y5X9 21-500): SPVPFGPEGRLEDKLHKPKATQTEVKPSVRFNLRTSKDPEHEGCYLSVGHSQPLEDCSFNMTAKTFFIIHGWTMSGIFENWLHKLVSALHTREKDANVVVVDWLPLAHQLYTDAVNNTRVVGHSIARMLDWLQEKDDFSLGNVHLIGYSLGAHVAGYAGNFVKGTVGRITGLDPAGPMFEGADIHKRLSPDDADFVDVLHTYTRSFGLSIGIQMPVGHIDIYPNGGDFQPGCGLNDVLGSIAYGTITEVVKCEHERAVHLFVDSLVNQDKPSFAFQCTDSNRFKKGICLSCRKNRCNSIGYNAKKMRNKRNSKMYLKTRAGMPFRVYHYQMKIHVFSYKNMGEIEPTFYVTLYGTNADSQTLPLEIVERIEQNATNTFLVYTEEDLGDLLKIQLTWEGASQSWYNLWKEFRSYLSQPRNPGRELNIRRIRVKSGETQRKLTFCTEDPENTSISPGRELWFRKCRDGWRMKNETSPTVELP

As to `Cc1cc(-c2cc3nc(C(C(=O)NCC(=O)NCCOC(C)C)S(C)(=O)=O)sc3cc2F)cnn1` (stereo not shown) [Example 362, 2-[6-fluoro-5-(6-methylpyridazin-4-yl)-1,3-benzothiazol-2-yl]-2-methanesulfonyl-N-({[2-(propan-2-yloxy)ethyl]carbamoyl}methyl)acetamide], the IC50 is 25 nM.

Regarding `COC(=O)Nc1ccc(-c2cc3nc(C(C(=O)NCC(=O)NCCOC(C)C)S(C)(=O)=O)sc3cc2F)cc1F` (stereo not shown) [Example 363, methyl N-[2-fluoro-4-(6-fluoro-2-{methanesulfonyl [({[2-(propan-2-yloxy)ethyl]carbamoyl}methyl)carbamoyl]methyl}-1,3-benzothiazol-5-yl)phenyl]carbamate], 11 nM corresponded to half-maximal inhibition (IC50).

`COc1cc(-c2cc3nc(C(C(=O)NCC(=O)NC4CC4)S(C)(=O)=O)sc3cc2F)ccn1` (stereo not shown) [Example 364, N-[(cyclopropyl-carbamoyl)methyl]-2-[6-fluoro-5-(2-methoxypyridin-4-yl)-1,3-benzothiazol-2-yl]-2-methanesulfonyl-acetamide]: inhibition was half-maximal at 12 nM (IC50).

`CS(=O)(=O)C(C(=O)NCC(=O)NC1CC1)c1nc2cc(-c3ccc4c(c3)NC(=O)C4)c(F)cc2s1` (stereo not shown) [Example 365, N-[(cyclopropyl-carbamoyl)methyl]-2-[6-fluoro-5-(2-oxo-2,3-dihydro-1H-indol-6-yl)-1,3-benzothiazol-2-yl]-2-methanesulfonyl-acetamide] returned an IC50 of 36 nM.

`COc1ccc(-c2cc3nc(C(C(=O)NCC(=O)NC4CC4)S(C)(=O)=O)sc3cc2F)cn1` (stereo not shown) [Example 366, N-[(cyclopropyl-carbamoyl)methyl]-2-[6-fluoro-5-(6-methoxypyridin-3-yl)-1,3-benzothiazol-2-yl]-2-methanesulfonyl-acetamide] showed an IC50 of 30 nM.

With `CS(=O)(=O)C(C(=O)NCC(=O)NC1CC1)c1nc2cc(-c3cccnc3F)c(F)cc2s1` (stereo not shown) [Example 367, N-[(cyclopropyl-carbamoyl)methyl]-2-[6-fluoro-5-(2-fluoropyridin-3-yl)-1,3-benzothiazol-2-yl]-2-methanesulfonyl-acetamide], half-maximal inhibition (IC50) required 25 nM.

`COc1nccc(-c2cc3nc(C(C(=O)NCC(=O)NC4CC4)S(C)(=O)=O)sc3cc2F)c1F` (stereo not shown) [Example 368, N-[(cyclopropyl-carbamoyl)methyl]-2-[6-fluoro-5-(3-fluoro-2-methoxypyridin-4-yl)-1,3-benzothiazol-2-yl]-2-methanesulfonyl-acetamide] returned a half-maximal inhibitory concentration (IC50) of 17 nM.

On to `Cn1cnc2ccc(-c3cc4sc(C(C(=O)NCC(=O)NC5CC5)S(C)(=O)=O)nc4cc3F)cc21` (stereo not shown) [Example 369, N-[(cyclopropyl-carbamoyl)methyl]-2-[5-fluoro-6-(1-methyl-1H-1,3-benzodiazol-6-yl)-1,3-benzothiazol-2-yl]-2-methanesulfonyl-acetamide], for which the IC50 is 16 nM.

In turn, `CS(=O)(=O)C(C(=O)NCC(=O)NC1CC1)c1nc2cc(F)c(-c3ccc4c(c3)CC(=O)N4)cc2s1` (stereo not shown) [Example 370, N-[(cyclopropyl-carbamoyl)methyl]-2-[5-fluoro-6-(2-oxo-2,3-dihydro-1H-indol-5-yl)-1,3-benzothiazol-2-yl]-2-methanesulfonyl-acetamide] had an IC50 of 5 nM.

`CS(=O)(=O)C(C(=O)NCC(=O)NC1CC1)c1nc2cc(F)c(-c3cccc4c3CC(=O)N4)cc2s1` (stereo not shown) [Example 371, N-[(cyclopropyl-carbamoyl)methyl]-2-[5-fluoro-6-(2-oxo-2,3-dihydro-1H-indol-4-yl)-1,3-benzothiazol-2-yl]-2-methanesulfonyl-acetamide] gave an IC50 of 5 nM.

`CS(=O)(=O)C(C(=O)NCC(=O)NC1CC1)c1nc2cc(F)c(-c3ccc4c(c3)NC(=O)C4)cc2s1` (stereo not shown) [Example 372, N-[(cyclopropyl-carbamoyl)methyl]-2-[5-fluoro-6-(2-oxo-2,3-dihydro-1H-indol-6-yl)-1,3-benzothiazol-2-yl]-2-methanesulfonyl-acetamide]: the IC50 came out at 6 nM.

Regarding `CS(=O)(=O)C(C(=O)NCC(=O)NC1CC1)c1nc2ccc(-c3ccc(-n4cccn4)cc3)cc2s1` (stereo not shown) [Example 373, N-[(cyclopropyl-carbamoyl)methyl]-2-methanesulfonyl-2-{6-[4-(1H-pyrazol-1-yl)phenyl]-1,3-benzothiazol-2-yl}acetamide], half-maximal inhibition (IC50) required 2 nM.

Consider `CN1C(=O)Cc2cc(-c3cc4sc(C(C(=O)NCC(=O)NC5CC5)S(C)(=O)=O)nc4cc3F)ccc21` (stereo not shown) [Example 374, N-[(cyclopropyl-carbamoyl)methyl]-2-[5-fluoro-6-(1-methyl-2-oxo-2,3-dihydro-1H-indol-5-yl)-1,3-benzothiazol-2-yl]-2-methanesulfonyl-acetamide], for which the IC50 is 9 nM.

In the case of `CS(=O)(=O)C(C(=O)NCC(=O)NC1CC1)c1nc2cc(F)c(-c3ccc(-n4cccn4)cc3)cc2s1` (stereo not shown) [Example 375, N-[(cyclopropyl-carbamoyl)methyl]-2-{5-fluoro-6-[4-(1H-pyrazol-1-yl)phenyl]-1,3-benzothiazol-2-yl}-2-methanesulfonyl-acetamide], it took 2 nM to reach half-maximal inhibition (IC50).

Where the note is “EL from conditioned media of HT-1080 cells, 30 min preincubation at 37° C.”, `COCCS(=O)(=O)C(C(=O)NCC(=O)NC1CC1)c1nc2ccc(-c3ccc(F)nc3)cc2s1` (stereo not shown) [Example 376, N-[(Cyclopropylcarbamoyl)methyl]-2-[6-(6-fluoropyridin-3-yl)-1,3-benzothiazol-2-yl]-2-(2-methoxyethanesulfonyl)acetamide] registered an IC50 of 4 nM.

In the case of `COCCS(=O)(=O)C(C(=O)NCC(=O)NCCOCc1ccccc1)c1nc2ccc(-c3ccc(F)nc3)cc2s1` (stereo not shown) [Example 377, N-({[2-(benzyloxy)ethyl]carbamoyl}methyl)-2-[6-(6-fluoropyridin-3-yl)-1,3-benzothiazol-2-yl]-2-(2-methoxyethane-sulfonyl)acetamide], the IC50 was found to be 1 nM.

As for `COCCS(=O)(=O)C(C(=O)NCC(=O)NCC(F)(F)F)c1nc2ccc(-c3ccc(F)nc3)cc2s1` (stereo not shown) [Example 378, 2-[6-(6-fluoropyridin-3-yl)-1,3-benzothiazol-2-yl]-2-(2-methoxyethane-sulfonyl)-N-{[(2,2,2-trifluoroethyl)carbamoyl]methyl} acetamide], the IC50 was determined as 198 nM.

For the compound `COCCNC(=O)CNC(=O)C(c1nc2ccc(-c3ccc(F)nc3)cc2s1)S(=O)(=O)CCOC` (stereo not shown) [Example 379, 2-[6-(6-fluoropyridin-3-yl)-1,3-benzothiazol-2-yl]-2-(2-methoxyethane-sulfonyl)-N-{[(2-methoxyethyl)carbamoyl]methyl} acetamide], the IC50 came to 108 nM.

As to `COCCS(=O)(=O)C(C(=O)NCC(=O)NCCOc1ccccc1)c1nc2ccc(-c3ccc(F)nc3)cc2s1` (stereo not shown) [Example 380, 2-[6-(6-fluoropyridin-3-yl)-1,3-benzothiazol-2-yl]-2-(2-methoxyethane-sulfonyl)-N-{[(2-phenoxyethyl)carbamoyl]methyl} acetamide], the IC50 was found to be 1 nM.

`COCCS(=O)(=O)C(C(=O)NCC(=O)NC1(C)CC1)c1nc2ccc(-c3ccc(F)nc3)cc2s1` (stereo not shown) [Example 381, 2-[6-(6-fluoropyridin-3-yl)-1,3-benzothiazol-2-yl]-2-(2-methoxyethane-sulfonyl)-N-{[(1-methylcyclopropyl)carbamoyl]methyl} acetamide] yielded an IC50 of 15 nM.

Consider `COCCS(=O)(=O)C(C(=O)NCC(=O)NCC1CC1)c1nc2ccc(-c3ccc(F)nc3)cc2s1` (stereo not shown) [Example 382, N-{[(cyclopropyl-methyl)carbamoyl]methyl}-2-[6-(6-fluoropyridin-3-yl)-1,3-benzothiazol-2-yl]-2-(2-methoxyethane-sulfonyl)acetamide], for which the IC50 turned out to be 22 nM.

Compound `COCCS(=O)(=O)C(C(=O)NCC(=O)Nc1ccccc1)c1nc2ccc(-c3ccc(F)nc3)cc2s1` (stereo not shown) [Example 383, 2-[6-(6-fluoropyridin-3-yl)-1,3-benzothiazol-2-yl]-2-(2-methoxyethane-sulfonyl)-N-[(phenyl-carbamoyl)methyl]acetamide] displayed an IC50 of 3 nM.

In turn, `COCCS(=O)(=O)C(C(=O)NCC(=O)NC1COC1)c1nc2ccc(-c3ccc(F)nc3)cc2s1` (stereo not shown) [Example 384, 2-[6-(6-fluoropyridin-3-yl)-1,3-benzothiazol-2-yl]-2-(2-methoxyethane-sulfonyl)-N-{[(oxetan-3-yl)carbamoyl]methyl} acetamide] registered an IC50 of 13 nM.

`COCCS(=O)(=O)C(C(=O)NCC(=O)NC1CC1)c1nc2cc(-c3ccc(F)nc3)ccc2s1` (stereo not shown) [Example 385, N-[(cyclopropyl-carbamoyl)methyl]-2-[5-(6-fluoropyridin-3-yl)-1,3-benzothiazol-2-yl]-2-(2-methoxyethane-sulfonyl)acetamide] registered an IC50 of 13 nM.

`COCCS(=O)(=O)C(C(=O)NCC(=O)NC1COC1)c1nc2cc(-c3ccc(F)nc3)ccc2s1` (stereo not shown) [Example 386, 2-[5-(6-fluoropyridin-3-yl)-1,3-benzothiazol-2-yl]-2-(2-methoxyethane-sulfonyl)-N-{[(oxetan-3-yl)carbamoyl]methyl} acetamide] showed an IC50 of 25 nM.

As to `COCCS(=O)(=O)C(C(=O)NCC(=O)NC1(C)CCC1)c1nc2cc(-c3ccc(F)nc3)ccc2s1` (stereo not shown) [Example 387, 2-[5-(6-fluoropyridin-3-yl)-1,3-benzothiazol-2-yl]-2-(2-methoxyethane-sulfonyl)-N-{[(1-methylcyclobutyl)carbamoyl]methyl} acetamide], half-maximal inhibition (IC50) was put at 28 nM.

`COCCS(=O)(=O)C(C(=O)NCC(=O)NC1(c2ccccn2)CC1)c1nc2ccc(-c3ccc(F)nc3)cc2s1` (stereo not shown) [Example 388, 2-[6-(6-fluoropyridin-3-yl)-1,3-benzothiazol-2-yl]-2-(2-methoxyethane-sulfonyl)-N-({[1-(pyridin-2-yl)cyclopropyl]carbamoyl}methyl) acetamide]: the IC50 came out at 48 nM.

For the compound `COCCS(=O)(=O)C(C(=O)NCC(=O)NCC1CC1)c1nc2cc(-c3ccc(F)nc3)ccc2s1` (stereo not shown) [Example 389, N-{[(cyclopropyl-methyl)carbamoyl]methyl}-2-[5-(6-fluoropyridin-3-yl)-1,3-benzothiazol-2-yl]-2-(2-methoxyethane-sulfonyl)acetamide], inhibition was half-maximal at 59 nM (IC50).

A word on the IC50: it is the concentration that gives 50% inhibition. Read a high IC50 as weaker potency in that assay.
